This is an account of results in patent US12036190B2, “Methods and compositions for the treatment of cytoplasmic glycogen storage disorders” (Duke University, priority 2015, dated 2024).

In data set [1] the test system is G6pc knockdown AML-12 cells. As to the kind of experiment: LC3 Western blot of drug-treated G6pc knockdown AML-12 cells. The conditions noted are these: 24 hours; conditions with optimal effects in the Oil Red O screen. In kind it is cell-based, mouse. As for the experimental part: FIG. 27 illustrates LC3 Western blot of drug-treated G6pc knockdown AML-12 cells. Western blotting was performed on AML-12 cells incubated for 24 hours with the described drug conditions. LC3 was quantified and normalized against each condition's β-actin protein quantification.
In addition to Oil Red O staining, cells were analyzed via Western blots for restored LC3 expression for each drug, under the conditions that had optimal effects in the Oil Red O screen (FIG. 27). Since the Western antibody previously used successfully for rapamycin treatment LC3 blots had been discontinued by the manufacturer, we tested two alternative antibodies and chose the one from Cell Signaling Technologies because it gave the strongest signal-to-noise ratio under our experimental conditions.
Western blotting was performed on AML-12 cells incubated for 24 hours with the described drug conditions. LC3 was quantified and normalized against each condition's β-actin protein quantification.
For orientation: In western blotting, separated proteins are transferred to a membrane and probed.

Data set [2] deals with G6pc siRNA knockdown AML-12 cells. Particulars: Oil Red O, duplicate. The source says: In brief, a wide array of drugs was selected, including those that modulate autophagy via the […] pathway, those that do so through AMPK modulation to act through mTORC1, and those using yet-undetermined pathways. Analysis of additional literature led to the selection of three concentrations of each compound to be tested in cell culture using the G6pc siRNA knockdown AML-12 mouse hepatocyte cell line model of GSD Ia as an initial screen for the drugs.
Drug concentrations were chosen based on similarity to published concentrations in either cell culture models resulting in target effects or autophagy, or in vivo extracellular fluid concentrations following animal treatments. The latter case is noted with the fluid type. Concentrations used in our in vitro AML-12 cell culture treatments are listed as the low, medium, and high concentrations that were screened.
The first test using AML-12 cells was the Oil Red 0 stain to examine the presence of lipid vacuoles in cells given the treatments.
G6pc siRNA knockdown AML-12 cells were given three different doses of each drug treatment. After 72 hours of growth, the media was changed to ketogenic media and appropriate quantities of each drug were added. This was performed in duplicate. Oil Red 0 staining was then performed and bright field images acquired at 10× magnification.
Drug treatments at three doses each were performed on G6pc siRNA knockdown AML-12 cells. Following oil red 0 staining the whole plates were evaluated visually for reductions in lipid accumulation. Treatments were performed in duplicate. —/0/+/++/+++ indicates the degree of improvement, or lipid reduction, caused by the treatment, with + indicating positive benefits.

For data set [3] the following is noted: in vivo extracellular fluid concentration; cited from earlier work.
Another data set relates to autophagy. Particulars: Table 4; drugs known to enhance autophagy; cited from earlier work.

As to `NC(=O)N1c2ccccc2C=Cc2ccccc21` [Carbamazepine], the “LC3 normalized against β-actin (Western blot)” value in data set [1] is on record as “increase in LC3 autophagic marker”. The “Lipid Reduction Scoring, High dose” value in data set [2] (high concentration of Table 6) was determined as 0. Besides, in data set [2] (low concentration of Table 6), the “Lipid Reduction Scoring, Low dose” value is given as “+++”. Also, the “Lipid Reduction Scoring, Medium dose” value in data set [2] (medium concentration of Table 6) is reported as “+”. The “Published Concentration, cerebrospinal fluid” value in data set [3] was 0.7 to 1.5 µg/mL. Moreover, in the data set on autophagy, the Effect result is listed as “Activated autophagy, reduced hepatosteatosis”.
